Results published in US20230042961A1, “FUNGICIDAL COMPOUNDS AND MIXTURES FOR FUNGAL CONTROL IN CEREALS” (Dow AgroSciences LLC, priority 2017, published 2023).

What was measured:
[1] = tested on: Puccinia recondita (PUCCRT); experiment: Field assessment of brown rust of wheat (PUCCRT), 2 field trials; type: in vivo, Puccinia recondita on wheat (TRZAW); details: relative AUDPC, average of 2 field trials, with Agnique BP-420
Description: (§1) Treatments consisted of the compound of Formula I and the compound of Formula II either using individually or as a two-way mixture with the compound of Formula I. The compound of Formula I was applied with Agnique BP-420 (50% w/w at 0.3% v/v) at 75 and 150 g ai/ha and the compound of Formula II was applied with Agnique BP-420 (50% w/w at 0.3% v/v) at 20, 40, and 60 g ai/ha. Commercial standards used in the studies were Fluxapyroxad (Imtrex), applied at 100 g ai/ha, and Metconazole+Fluxapyroxad (Librax), applied at 161 g ai/ha.
Field Assessment of Puccinia recondita (PUCCRT) in Wheat:
Fungicidal treatment containing the compound of Formula I and the compound of Formula II, either individually or as a two mixture, were assessed against brown rust of wheat (PUCCRT) in two separate field trials. In the first trial, fungicidal treatments were applied at B37-39 (protectant, approximately 0% infection at application) growth stage of wheat (TRZAW, MV Vanek variety) under natural infection of brown rust. The treatment was part of an experimental trial designed as a randomized complete block with four replications and a plot of approximately 2×3 m. Fungicidal treatments were applied at a water volume of 200 L/ha, using a backpack plot sprayer with a TEEJET QJ90-2XTT110 015 Nozzle.
In the second trial, fungicidal treatments containing the compound of Formula I and the compound of Formula II, either individually or as a two way mixture, were applied at B33 (curative, approximately 6.6% infection at application) growth stage of wheat (TRZAW, Miradoux variety) under natural infection of brown rust. The treatments were part of an experimental trial designed as a randomized complete block with four replications and a plot of approximately 2×3 m. Fungicidal treatments were applied at a water volume of 200 L/ha, using a backpack plot sprayer with a HARDI MD110-02 Nozzle.
(§2) Disease severity (percentage of visual diseased foliage on whole plot or leaves) in both field trials was assessed at 5 weeks after application and was recorded following EPPO PP1/26 guideline prescriptions. Area under the disease progress curve (AUDPC) was calculated for each plot in both trials using the sets of recorded severity data. Relative AUDPC (% control based on AUDPC) was calculated as percent of the nontreated control. Final results for the control of brown rust of wheat by the compound of Formula I, the compound of Formula II, and mixtures are reported as an average of the relative AUDPC calculated over both field trials. Statistical analysis was done according to ANOVA and Tukey's test (p=0.10).

[2] = tested on: Puccinia striiformis (PUCCST); experiment: Field assessment of yellow rust of wheat (PUCCST), 2 field trials; type: in vivo, Puccinia striiformis on wheat (TRZAW); details: relative AUDPC, average of 2 field trials, with Agnique BP-420
Description: as §1
Field Assessment of Puccinia striiformis (PUCCST) in Wheat:
Fungicidal treatments containing the compound of Formula I and the compound of Formula II, either individually or as a two way mixture, were assessed against yellow rust of wheat (PUCCST) in two separate field trials. In the first trial, fungicidal treatments were applied twice at B31-32 (early curative, 4% infection at application on L3) and B39 (16.3% infection at application on L3) growth stages of winter wheat (TRZAW, Fairplay variety) under naturally occurring infection with PUCCST. The treatments were part of an experimental trial designed as a randomized complete block with four replications and a plot of approximately 1×6 m. Treatments were applied at water volume of 200 L/ha, using a backpack plot sprayer (BKPCKENG, F110-015 Hardi (3) Flat fan nozzle) and pressurized at 200 kPa.
In the second trial, fungicidal treatments containing the compound of Formula I and the compound of Formula II, either individually or as a two way mixture, were applied twice at B32 (protectant, 0% infection on L3 at application) and B37 (early curative, 20% infection on L3 at application) growth stages of wheat (TRZAW, Torch variety) under naturally occurring infection with PUCCST. The treatment was part of an experimental trial designed as a randomized complete block with four replications and a plot of approximately 2×4 m. Treatments were applied at water volume of 200 L/ha, using a backpack precision plot sprayer (BKCKAIR, F110-03 Hypro (4) Flat fan nozzle) and pressurized at 210 kPa.
as §2, with “4-7” for “5”, “yellow” for “brown”

[3] = tested on: Zymoseptoria tritici (SEPTTR); experiment: Field assessment of leaf blotch of wheat (SEPTTR), 3 field trials; type: in vivo, Zymoseptoria tritici on winter wheat (TRZAW); details: relative AUDPC, average of 3 field trials, with Agnique BP-420
Description: as §1
Field Assessment of Zymoseptoria tritici (SEPTTR) in Wheat:
Fungicidal treatments containing the compound of Formula I and the compound of Formula II, either individually or as a two way mixture, were assessed against leaf spot of wheat (SEPTTR) in three separate field trials. In the first trial, fungicidal treatments were applied at B37 (curative, 1.8% infection at application on L4) growth stage of winter wheat (TRZAW, Sy moisson variety) under naturally occurring infection with SEPTTR. The treatments were part of an experimental trial designed as a randomized complete block with four replications and a plot of approximately 2×4 m. Treatments were applied at water volume of 200 L/ha, using a backpack plot sprayer (BKPCKAIR, FLAT FAN nozzle) and pressurized at 250 kPa.
In the second trial, fungicidal treatments were applied twice at B32 (curative, 15% infection at application on L5) and B39 (16% infection at application on L4) growth stages of winter wheat (TRZAW, Riband variety) under naturally occurring infection with SEPTTR. The treatments were part of an experimental trial designed as a randomized complete block with four replications and a plot of approximately 1.5×2 m. Treatments were applied at water volume of 200 L/ha, using a backpack plot sprayer (BKPCKAIR, Flat fan nozzle) and pressurized at 180 kPa.
In the final trial, fungicidal treatments were applied twice at B32 (protective, 15% infection at application on L6) and B37 (12% infection at application on L5) growth stages of winter wheat (TRZAW, Smaragd variety) under naturally occurring infection with SEPTTR. […]
as §2, with “at 7-9” for “at 5”, “of leaf spot” for “of brown rust”, “over all three” for “over both”, “trials. […]” for “trials. Statistical analysis was done according to ANOVA and Tukey's test (p=0.10).”

## N#Cc1ccc(Oc2ccc(C(F)(F)C(O)(Cn3nc[nH]c3=S)c3ccc(F)cc3F)nc2)cc1 (stereo not drawn) [Compound I, 4-((6-(2-(2,4-difluorophenyl)-1,1-difluoro-2-hydroxy-3-(5-thioxo-4,5-dihydro-1H-1,2,4-triazol-1-yl)propyl)pyridin-3-yl)oxy)benzonitrile]
[1]; 75 g ai/ha
  PUCCRT % Control: 79.7%
[1]; 150 g ai/ha
  PUCCRT % Control: 89.0%
[2]; 75 g ai/ha
  PUCCST % Control: 83.4%
[2]; 150 g ai/ha
  PUCCST % Control: 87.7%
[3]; 75 g ai/ha
  SEPTTR % Control: 50.3%
[3]; 150 g ai/ha
  SEPTTR % Control: 73.8%

## COc1ccnc(C(=O)N[C@@H](C)C(=O)O[C@@H](C)C(c2ccc(F)cc2)c2ccc(F)cc2)c1OC(C)=O [Compound II, (S)-1,1-bis(4-fluorophenyl)propan-2-yl (3-acetoxy-4-methoxypicolinoyl)-L-alaninate]
[1]; 20 g ai/ha
  PUCCRT % Control: 45.4%
[1]; 40 g ai/ha
  PUCCRT % Control: 64.7%
[2]; 40 g ai/ha
  PUCCST % Control: 50.6%
[2]; 60 g ai/ha
  PUCCST % Control: 56.2%
[3]; 20 g ai/ha
  SEPTTR % Control: 35.1%
[3]; 40 g ai/ha
  SEPTTR % Control: 52.2%
